Assay results published in patent publication US20250144067A1, “PERSONALIZED STARVATION THERAPY FOR CANCER” (Faeth Therapeutics, Inc., priority 2021, published 2025).
Structures can show the parent of a compound that is named as a salt. Where two headings read alike, the source gives them in different places.

Columns and labels:
[1] = test system: NCI-H292 lung cancer cells; assay: FDA drug screening, complete media vs cholesterol-free media without statin (TABLE 1); type: cell-based, human
[2] = test system: NCI-H292 lung cancer cells; assay: FDA drug screening, complete media vs cholesterol-free media with simvastatin (TABLE 2); type: cell-based, human
[3] = Complete minus Cholesterol-free, […]
[4] = NCI-H292 cells, cholesterol-free media without statin
[5] = NCI-H292 cells, FDA library drug in cholesterol-free media with simvastatin 0.04 μM
[6] = NCI-H292 cells, FDA library drug in complete media
[7] = complete media vs cholesterol-free media + simvastatin (0.04 μM), […]
[8] = Complete minus Cholesterol-free, >0 enhanced anti-cancer activity, about 0 neutral, <0 antagonist
[9] = NCI-H292 cells, FDA drug library screen, cholesterol-free media with simvastatin 0.04 μM
[10] = NCI-H292 cells, FDA drug library screen, complete media
[11] = complete media vs cholesterol-free media + simvastatin (0.04 μM), >0 enhanced anti-cancer activity, about 0 neutral, <0 antagonist
[12] = NCI-H292 cells, cholesterol-free media without statin, FDA drug library screen
[13] = NCI-H292 cells, complete media, FDA drug library screen
[14] = NCI-H292 cells, cholesterol-free media with simvastatin 0.04 μM, cell growth value in FDA drug screen
[15] = NCI-H292 cells, complete media, cell growth value in FDA drug screen
[16] = complete media minus cholesterol-free media + simvastatin, >0 enhanced anti-cancer activity, about 0 neutral, <0 antagonist
[17] = NCI-H292 cells, cholesterol-free media with simvastatin 0.04 μM, FDA drug library screen (TABLE 2)
[18] = NCI-H292 cells, complete media, FDA drug library screen (TABLE 2)
[19] = complete media minus cholesterol-free media + simvastatin (0.04 μM), >0 enhanced anti-cancer activity, about 0 neutral, <0 antagonist
[20] = complete vs cholesterol-free media, >0 enhanced anti-cancer activity, about 0 neutral, <0 antagonist
[21] = Complete minus Cholesterol-free, greater than 0 enhanced anti-cancer activity, about 0 neutral, below 0 antagonist
[22] = NCI-H292 cells, FDA drug library screen, cholesterol-free media without statin
[23] = complete vs cholesterol-free media, greater than 0 enhanced anti-cancer activity, about 0 neutral, below 0 antagonists
[24] = Complete minus Cholesterol-free, greater than 0 enhanced anti-cancer activity, about 0 neutral, below 0 antagonists
[25] = NCI-H292 cells in cholesterol-free media without statin
[26] = NCI-H292 cells in complete media
[27] = NCI-H292 cells, drug in cholesterol-free media with simvastatin 0.04 μM
[28] = NCI-H292 cells, drug in complete media

CC(=O)OCC(=O)[C@@]1(O)CC[C@H]2[C@@H]3CCC4=CC(=O)C=C[C@]4(C)[C@H]3C(=O)C[C@@]21C [Prednisone acetate]
Difference [1, 3]: −0.20 | Cholesterol-free [1, 4]: 0.9782 | Complete ([1]; NCI-H292 cells, complete media): 0.7806 | Cholesterol-free media + simvastatin (0.04 μM) [2, 5]: 0.9605 | Complete Media [2, 6]: 0.6606 | Difference [2, 7]: −0.30

Benztropine (mesylate)
Cholesterol-free [1]: 0.859 | Complete [1]: 0.7883 | Difference [1]: −0.07 | Cholesterol-free media + simvastatin (0.04 μM) [2]: 0.7872 | Complete Media [2]: 0.8586 | Difference [2]: 0.07

CC[C@@H](C(N)=O)N1CCCC1=O [Levetiracetam]
Difference [1, 8]: −0.22 | Cholesterol-free [1, 4]: 1.098 | Complete ([1]; NCI-H292 cells, complete media): 0.8825 | Cholesterol-free media + simvastatin (0.04 μM) [2, 9]: 1.002 | Complete Media [2, 10]: 0.917 | Difference [2, 11]: −0.09

CC(=O)Nc1cccc(-n2c(=O)n(C3CC3)c(=O)c3c(Nc4ccc(I)cc4F)n(C)c(=O)c(C)c32)c1 [Trametinib]
Difference [1, 8]: −0.06 | Cholesterol-free [1, 12]: 0.4164 | Complete [1, 13]: 0.3595 | Cholesterol-free media + simvastatin (0.04 μM) [2, 14]: 0.2423 | Complete Media [2, 15]: 0.2586 | Difference [2, 16]: 0.02

[H]/N=C(\N/C(=N/[H])NCCCCCCNC(=N)NC(=N)Nc1ccc(Cl)cc1)Nc1ccc(Cl)cc1 [Chlorhexidine]
Difference [1, 8]: 0.04 | Cholesterol-free [1, 12]: 0.0819 | Complete [1, 13]: 0.1259 | Cholesterol-free media + simvastatin (0.04 μM) [2, 17]: 0.6176 | Complete Media [2, 18]: 0.5919 | Difference [2, 19]: −0.03

O=C(O)c1cc(-c2ccc(F)cc2F)ccc1O [Diflunisal]
Cholesterol-free [1, 12]: 1.041 | Complete [1, 13]: 1.674 | Difference [1, 20]: 0.63 | Cholesterol-free media + simvastatin (0.04 μM) [2, 17]: 0.785 | Complete Media [2, 18]: 0.7827 | Difference [2, 19]: 0.00

CC(=O)c1ccc(S(=O)(=O)NC(=O)NC2CCCCC2)cc1 [Acetohexamide]
Difference [1, 21]: −0.13 | Cholesterol-free [1, 22]: 1.163 | Complete [1, 10]: 1.03 | Cholesterol-free media + simvastatin (0.04 μM) [2, 9]: 1.214 | Complete Media [2, 10]: 1.116 | Difference [2, 11]: −0.10

O=C(O)c1cc(/N=N/c2ccc(S(=O)(=O)Nc3ccccn3)cc2)ccc1O [Sulfasalazine]
Difference [1, 8]: −0.20 | Cholesterol-free [1, 4]: 1.104 | Complete ([1]; NCI-H292 cells, complete media): 0.9081 | Cholesterol-free media + simvastatin (0.04 μM) [2, 17]: 1.17 | Complete Media [2, 18]: 1.155 | Difference [2, 19]: −0.01

Cc1ccc(C(=O)c2ccc(CC(=O)O)n2C)cc1 [Tolmetin]
Cholesterol-free [1, 4]: 0.9799 | Complete ([1]; NCI-H292 cells, complete media): 0.6144 | Difference [1, 23]: −0.37 | Cholesterol-free media + simvastatin (0.04 μM) [2, 5]: 1.718 | Complete Media [2, 6]: 1.392 | Difference [2, 11]: −0.33

NC(=O)N/N=C/c1ccc([N+](=O)[O-])o1 [Nitrofurazone]
Cholesterol-free [1, 12]: 1.281 | Complete [1, 13]: 1.416 | Difference [1, 20]: 0.13 | Cholesterol-free media + simvastatin (0.04 μM) [2, 5]: 1.854 | Difference [2, 11]: −0.70

CCN(CC)CCCC(C)Nc1ccnc2cc(Cl)ccc12 (centres unmarked) [Chloroquine]
Cholesterol-free [1]: 1.226 | Complete [1]: 0.9181 | Difference [1]: −0.31 | Cholesterol-free media + simvastatin (0.04 μM) [2]: 2.192 | Complete Media [2]: 0.9997 | Difference [2]: −1.19

CCN(CC)CCNC(=O)c1ccc(N)cc1 [Procainamide (hydrochloride)]
Difference [1, 24]: −0.51 | Cholesterol-free [1, 25]: 1.397 | Complete [1, 26]: 0.8831 | Cholesterol-free media + simvastatin (0.04 μM) [2, 5]: 1.529 | Complete Media [2, 6]: 1.165 | Difference [2, 11]: −0.36

NC(=O)NS(=O)(=O)c1ccc(N)cc1 [Sulfacarbamide]
Difference [1, 8]: 0.04 | Cholesterol-free [1, 12]: 0.9085 | Complete [1, 13]: 0.9465 | Cholesterol-free media + simvastatin (0.04 μM) [2, 9]: 0.9379 | Complete Media [2, 10]: 1.144 | Difference [2, 16]: 0.21

O=C1c2c(O)ccc(O)c2C(=O)c2c(NCCNCCO)ccc(NCCNCCO)c21 [Mitoxantrone (dihydrochloride)]
Difference [1, 8]: 0.00 | Cholesterol-free [1, 12]: −0.002893 | Complete [1, 13]: −0.002012 | Cholesterol-free media + simvastatin (0.04 μM) [2, 14]: 0.006643 | Complete Media [2, 15]: 0.04976 | Difference [2, 16]: 0.04

COC(=O)[C@H]1[C@H]2C[C@@H]3c4[nH]c5cc(OC)ccc5c4CCN3C[C@H]2C[C@@H](OC(=O)c2cc(OC)c(OC)c(OC)c2)[C@@H]1OC [Reserpine]
Difference [1, 8]: −0.28 | Cholesterol-free [1, 4]: 1.042 | Complete ([1]; NCI-H292 cells, complete media): 0.7591 | Cholesterol-free media + simvastatin (0.04 μM) [2, 14]: 0.8906 | Complete Media [2, 15]: 0.9102 | Difference [2, 16]: 0.02

CCCN1CCCC[C@H]1C(=O)Nc1c(C)cccc1C [Ropivacaine]
Difference [1, 8]: −0.20 | Cholesterol-free [1, 4]: 1.098 | Complete ([1]; NCI-H292 cells, complete media): 0.8949 | Cholesterol-free media + simvastatin (0.04 μM) [2, 27]: 0.9386 | Complete Media [2, 28]: 0.7628 | Difference [2, 11]: −0.18

CC(C)(CO)[C@H](O)C(=O)NCCCO [D-Panthenol]
Difference [1, 21]: −0.09 | Cholesterol-free [1, 22]: 1.002 | Complete [1, 10]: 0.9087 | Cholesterol-free media + simvastatin (0.04 μM) [2, 27]: 1.067 | Complete Media [2, 28]: 0.817 | Difference [2, 11]: −0.25

CCOC(=O)c1ccc(O)cc1 [Ethylparaben]
Cholesterol-free [1, 12]: 1.065 | Complete [1, 13]: 1.563 | Difference [1, 20]: 0.50 | Cholesterol-free media + simvastatin (0.04 μM) [2, 9]: 1.326 | Complete Media [2, 10]: 1.517 | Difference [2, 16]: 0.19

C[N+](C)(C)CC(=O)O [Betaine (hydrochloride)]
Difference [1, 24]: −0.76 | Cholesterol-free [1, 25]: 1.594 | Complete [1, 26]: 0.8295 | Cholesterol-free media + simvastatin (0.04 μM) [2, 27]: 1.292 | Complete Media [2, 28]: 1.099 | Difference [2, 11]: −0.19

Oc1c(I)cc(I)c2cccnc12 [Diiodohydroxyquinoline]
Difference [1, 8]: −0.27 | Cholesterol-free [1, 4]: 1.098 | Complete ([1]; NCI-H292 cells, complete media): 0.8284 | Cholesterol-free media + simvastatin (0.04 μM) [2, 9]: 0.94 | Complete Media [2, 10]: 1.35 | Difference [2, 16]: 0.41

Nc1nc(Cl)nc2c1ncn2[C@@H]1O[C@H](CO)[C@@H](O)[C@@H]1F [Clofarabine]
Cholesterol-free [1, 4]: 0.802 | Complete ([1]; NCI-H292 cells, complete media): 0.4474 | Difference [1, 23]: −0.35 | Cholesterol-free media + simvastatin (0.04 μM) [2, 17]: 0.03305 | Complete Media [2, 18]: 0.03609 | Difference [2, 19]: 0.00

C[C@H]1COc2c(N3CCN(C)CC3)c(F)cc3c(=O)c(C(=O)O)cn1c23 [Levofloxacin (hydrate)]
Difference [1, 24]: −0.48 | Cholesterol-free [1, 25]: 1.308 | Complete [1, 26]: 0.8243 | Cholesterol-free media + simvastatin (0.04 μM) [2, 9]: 1.078 | Complete Media [2, 10]: 0.9583 | Difference [2, 11]: −0.12

CN(C)CCN(Cc1ccccc1)c1ccccn1 [Tripelennamine (hydrochloride)]
Difference [1, 21]: −0.13 | Cholesterol-free [1, 22]: 1.185 | Complete [1, 10]: 1.051 | Cholesterol-free media + simvastatin (0.04 μM) [2, 5]: 1.12 | Complete Media [2, 6]: 0.8343 | Difference [2, 11]: −0.29

Bleomycin (sulfate)
Difference [1, 3]: −0.05 | Cholesterol-free [1, 12]: 0.05041 | Complete [1, 13]: −0.00442 | Cholesterol-free media + simvastatin (0.04 μM) ([2]; NCI-H292 cells, cholesterol-free media with simvastatin 0.04 μM, […]): 0.1778 | Complete Media ([2]; NCI-H292 cells, complete media, […]): 0.2205 | Difference ([2]; complete media minus cholesterol-free media + simvastatin, […]): 0.04

CCCC(=O)O[C@]1(C(=O)CO)CC[C@H]2[C@@H]3CCC4=CC(=O)CC[C@]4(C)[C@H]3[C@@H](O)C[C@@]21C [Hydrocortisone 17-butyrate]
Difference [1, 8]: −0.03 | Cholesterol-free [1, 12]: 1.162 | Complete [1, 13]: 1.133 | Cholesterol-free media + simvastatin (0.04 μM) [2, 9]: 0.4747 | Complete Media [2, 10]: 0.6696 | Difference [2, 16]: 0.19

CCCc1nc(C(C)(C)O)c(C(=O)OCc2oc(=O)oc2C)n1Cc1ccc(-c2ccccc2-c2nnn[nH]2)cc1 [Olmesartan medoxomil]
Cholesterol-free [1, 12]: 0.613 | Complete [1, 13]: 1.033 | Difference [1, 20]: 0.42 | Cholesterol-free media + simvastatin (0.04 μM) [2, 5]: 2.007 | Complete Media [2, 6]: 1.701 | Difference [2, 11]: −0.31

Cn1c(=O)c2c(ncn2CC(O)CO)n(C)c1=O (centres unmarked) [Diphylline]
Difference [1, 3]: −0.69 | Cholesterol-free [1, 25]: 1.559 | Complete [1, 26]: 0.8732 | Cholesterol-free media + simvastatin (0.04 μM) [2, 27]: 1.247 | Complete Media [2, 28]: 1.05 | Difference [2, 7]: −0.20

CC/C(=C(/CC)c1ccc(O)cc1)c1ccc(O)cc1 [Diethylstilbestrol]
Cholesterol-free [1, 12]: 0.5644 | Complete [1, 13]: 0.9798 | Difference [1, 20]: 0.42 | Cholesterol-free media + simvastatin (0.04 μM) [2, 14]: 0.993 | Complete Media [2, 15]: 1.095 | Difference [2, 16]: 0.10

CCc1c2c(nc3ccc(OC(=O)N4CCC(N5CCCCC5)CC4)cc13)-c1cc3c(c(=O)n1C2)COC(=O)[C@]3(O)CC [Irinotecan]
Difference [1, 21]: −0.08 | Cholesterol-free [1, 22]: 0.2676 | Complete [1, 10]: 0.1842 | Cholesterol-free media + simvastatin (0.04 μM) [2, 5]: 0.729 | Complete Media [2, 6]: 0.3631 | Difference [2, 11]: −0.37
